Data reported in ChEMBL document CHEMBL1132045, “New growth hormone secretagogues: C-terminal modified sulfonamide-analogues of NN703” (Bioorg Med Chem Lett, 1999).

Organism: Rattus norvegicus
Assay: Compound was tested in vitro for growth hormone release in rat pituitary model
Format: functional

First: CC(=O)NC[C@@H](Cc1ccccc1)N(C)C(=O)[C@@H](Cc1ccc2ccccc2c1)N(C)C(=O)/C=C/CC(C)(C)N
Second: CN(C(=O)[C@@H](Cc1ccc2ccccc2c1)N(C)C(=O)/C=C/CC(C)(C)N)[C@@H](CNS(C)(=O)=O)Cc1ccccc1
The EC50 of the first is 10-fold higher: 25 nM for the first, 2.5 nM for the second. The second is the more potent here.

Compared with `CN(C(=O)[C@@H](Cc1ccc2ccccc2c1)N(C)C(=O)/C=C/CC(C)(C)N)[C@@H](CNC(=O)CCCO)Cc1ccccc1`, `CNC(=O)[C@@H](Cc1ccccc1)N(C)C(=O)[C@@H](Cc1ccc2ccccc2c1)N(C)C(=O)/C=C/CC(C)(C)N` [TABIMORELIN] is 13-fold lower in EC50: 34 nM for the first, 2.7 nM for the second.

`CN(C(=O)[C@@H](Cc1ccc2ccccc2c1)N(C)C(=O)/C=C/CC(C)(C)N)[C@H](Cc1cccs1)CN(C)S(C)(=O)=O` showed an EC50 of 3 nM.
